Experimental data from publication PMC5773577, “Novel Miniature Membrane Active Lipopeptidomimetics against Planktonic and Biofilm Embedded Methicillin-Resistant Staphylococcus aureus” (Scientific Reports, 2018).
≈ marks a conversion by molar mass, not a printed value. Where two headings read alike, the source gives them in different places. Non-standard residues stand in square brackets, D forms with d. Residues, ends and D or L forms follow the SMILES beside them. No end group written: not given here. d1Nal = N[C@H](Cc1cccc2ccccc12)C(=O)O; 12Ado = NCCCCCCCCCCCC(=O)O; Aoc = NCCCCCCCC(=O)O

What was measured:
S. aureus (ISP479R) = format: cell-based, Staphylococcus aureus; settings: MHB, 2–5 × 10^5 CFU/mL, 16–18 h, 37 °C, OD600
Protocol: (§1) The antibacterial activity was evaluated as MIC using slight modifications to a serial broth micro dilution method as reported previously[66],[67]. Briefly, to each treatment well of the 96-well plate (Corning Incorporated, USA) 10 μL of peptidomimetic/antibiotic was added and subsequently diluted serial 2-fold in 0.2% BSA (in 0.01% acetic acid). Then to each well of the first 11 columns 100 μL of mid-log phase bacterial suspension in MHB medium was added to get 2–5 × 10^5 CFU/mL. Cultures without test peptidomimetics/antibiotics were used as growth control. Uninoculated MHB medium was used as negative control. The microtitre plates were incubated overnight with agitation (180 rpm) at 37 °C. After 16–18 h incubation, absorbance was read at 600 nm using an ELISA plate reader (Molecular Devices, Sunnyvale, CA, USA). The experiments were carried out in duplicate on at least three different days.

[1] = system: mouse red blood cells (RBCs); assay: Hemolysis assay; format: cell-based; settings: mouse RBC, up to 250 μg/mL, 1 h, 37 °C, PBS pH 7.4; 0.1% Triton X-100 = 100%; data not shown
Protocol: For the experiment, a previously defined procedure was used with slight modifications[67],[68]. Briefly, blood was withdrawn from mice on the day of the experiment. After washing red blood cells (RBC) twice with phosphate buffer saline (PBS: 35 mM sodium phosphate, 150 mM NaCl, pH 7.4), a 4% v/v suspension of RBC was prepared in the same buffer. In a 96-well plate, serial two-fold dilutions of desired concentrations of peptidomimetics (in PBS) were prepared (100 μL) in duplicate. To each well 100 μL of 4% v/v RBC suspension was added. The plates were incubated at 37 °C for 1 h. After 1 h, the plates were centrifuged at 1500 rpm for 10 min and 20 μL of the supernatant was transferred to a fresh 96-well plate containing 80 μL PBS. The hemoglobin release was quantified by measuring OD414 in an ELISA plate reader (Molecular Devices, Sunnyvale, CA, USA). Hemoglobin release from 0.1% Triton X-100 treated RBC was set as 100% lysis (Amax) while as negative control RBC suspended in PBS alone was used (APBS). Percentage hemolysis was calculated using the following equation:1 %hemolysis=[(Asample−APBS)/(Amax−APBS)]×100

MRSA (ATCC 43300) = assay: microbe, parasite or virus in culture; format: cell-based, Staphylococcus aureus; settings: MHB, 2–5 × 10^5 CFU/mL, 16–18 h, 37 °C, OD600
Protocol: as §1

S. aureus (ISP479C) = assay: microbe, parasite or virus in culture; format: cell-based, Staphylococcus aureus; settings: MHB, 2–5 × 10^5 CFU/mL, 16–18 h, 37 °C, OD600
Protocol: as §1

[2] = system: Methicillin-resistant S. epidermidis (ATCC 35984); assay: microbe, parasite or virus in culture; format: cell-based, Staphylococcus epidermidis; settings: MRSE ATCC 35984; MHB, 2–5 × 10^5 CFU/mL, 16–18 h, 37 °C, OD600
Protocol: as §1

MRSA ATCC 33591 [3] = assay: Resistance development over 17 serial passages at sub-MIC; format: cell-based, Staphylococcus aureus; settings: for MIC: Staphylococcus aureus
Protocol: For the experiment, a method as described previously was used with slight modifications. Briefly, for the experiment, on day 1 the initial MICs of all test agents were determined using routine MIC experiment protocol as described earlier. Next day, bacterial cells (100 μL) from the wells with concentrations 2–4 fold less than the MIC value for each test agent were used to set up fresh mid-log phase cultures in MHB medium for setting up the MIC plate. This was repeated for a total of 17 sub-lethal treatments with each antimicrobial agent. For every passage, corresponding glycerol stocks (15% v/v) were made for each culture and were kept at −80 °C for future use.

[4] = system: E. faecium (E-447), clinical isolate of vancomycin-resistant E. faecium; assay: organism not typed; format: cell-based, Enterococcus faecium; settings: VRE clinical isolate E-447; MHB, 2–5 × 10^5 CFU/mL, 16–18 h, 37 °C
Protocol: as §1

[5] = system: E. faecium (E-7846), clinical isolate of vancomycin-resistant E. faecium; assay: organism not typed; format: cell-based, Enterococcus faecium; settings: VRE clinical isolate E-7846; MHB, 2–5 × 10^5 CFU/mL, 16–18 h, 37 °C
Protocol: as §1

[6] = system: Escherichia coli (ATCC 11775); format: cell-based
Protocol: as §1

S. aureus (ATCC 29213) = assay: microbe, parasite or virus in culture; format: cell-based, Staphylococcus aureus; settings: MHB, 2–5 × 10^5 CFU/mL, 16–18 h, 37 °C, OD600, duplicate, at least three days
Protocol: as §1

MRSA (ATCC 33591) = assay: microbe, parasite or virus in culture; format: cell-based, Staphylococcus aureus; settings: MHB, 2–5 × 10^5 CFU/mL, 16–18 h, 37 °C, OD600
Protocol: as §1

[7] = system: 3T3 murine fibroblast cell line; assay: Cytotoxicity, MTT assay; format: cell-based; settings: 3T3 fibroblasts, 2 h, DMEM with 10% FBS, mean ± S.D., triplicate on two days
Protocol: For the active peptidomimetics cytotoxicity was measured against 3T3 murine fibroblast cell line using a previously defined MTT assay with slight modifications. Briefly, the cells were grown to over 75% confluence in DMEM supplemented with 10% FBS and antibiotics (1 × Anti-anti) at 37 °C in 5% CO2 atmosphere. The cells were transferred to a 24-well plate to a final count of ~8 × 10^4 cells/well. […] The plates were kept for 2 h at 37 °C in 5% CO2 incubator. After 2 h, the cells were washed once with 1 mL PBS. Then 1 mL MTT (0.1 mg/mL) was added to each well in dark and incubated for 2 h at 37 °C in 5% CO2. After 2 h, 200 μL of DMSO was added to the wells to dissolve the formazan crystals formed and the plates were kept for 5 min in the incubator at 37 °C. 100 μL of the suspension was transferred to a fresh 96-well plate and absorbance (Asample) was measured at 570 nm in an ELISA plate reader (Molecular Devices, Sunnyvale, CA, USA). The wells with DMSO treatment were set as untreated control (Auntreated control). The assay was done in triplicate on two different days. The % survival was calculated using the following equation:2 %survival=[Asample/Auntreatedcontrol]×100

MRSA ATCC 33591 [8] = assay: microbe, parasite or virus in culture; format: cell-based, Staphylococcus aureus
Protocol: An initial inoculum of mid-log phase 10^7 CFU/mL was used and MIC experiment was performed as described earlier. For serum/plasma stability assay a method as described previously was used with slight modifications. Briefly, 50 μL MHB medium containing desired concentration of test peptidomimetics was incubated with 50 µL mice plasma/fetal bovine serum for 3 h at 37 °C. After incubation, a 10 μL aliquot was taken out for MIC determination as described above. For the experiment, mid-log phase 2–5 × 10^5 CFU/mL were used as initial inoculum. For the growth control wells, an equivalent amount of plasma/FBS in the medium was also added to evaluate their effect on the viability of cells. A slight decrease in OD600 of cells incubated with mice plasma was observed compared to untreated growth control in MHB alone. The experiments were repeated on two different days and reproducible MIC values were observed.

Molecule: N=C(N)NCCC[C@H](NC(=O)[C@@H](Cc1cccc2ccccc12)NC(=O)CCCCCCCNC(=O)[C@@H](Cc1cccc2ccccc12)NC(=O)[C@@H](N)CCCNC(=N)N)C(N)=O [S-9, Arg-(D-1-Nal)-(8-AOA)-(D-1-Nal)-Arg-CONH2] (H-R[d1Nal][Aoc][d1Nal]R-NH2)
- Minimum inhibitory concentration, MIC (S. aureus (ISP479R)): 45.4 µg/mL (≈ 52.5 µM)
- % hemolysis [1]: < 5%
- Minimum inhibitory concentration, MIC (MRSA (ATCC 43300)): >45.4 µg/mL
- Minimum inhibitory concentration, MIC (S. aureus (ISP479C)): 45.4 µg/mL (≈ 52.5 µM)
- Minimum inhibitory concentration, MIC [2]: 45.4 µg/mL (≈ 52.5 µM)

Molecule: N=C(N)NCCC[C@H](NC(=O)[C@@H](N)Cc1c[nH]c2ccccc12)C(=O)N[C@H](Cc1ccccc1C(F)(F)F)C(=O)N[C@@H](CCCNC(=N)N)C(=O)N[C@@H](Cc1c[nH]c2ccccc12)C(N)=O [S-2, Trp-Arg-(2-trifluoromethyl-D-Phe)-Arg-Trp-CONH2] (HELM PEPTIDE1{W.R.[O=C([C@@H](Cc1ccccc1C(F)(F)F)N[*:1])[*:2]].R.W.[am]}$$$$V2.0)
- % hemolysis [1]: < 5%

Molecule: O=C(O)c1cn(C2CC2)c2cc(N3CCNCC3)c(F)cc2c1=O [CIP, Ciprofloxacin]
- MIC (MRSA ATCC 33591 [3]; read-out: final MIC): 11.3 µg/mL (≈ 34.1 µM)
- MIC (MRSA ATCC 33591 [3]; read-out: initial MIC): 0.17 µg/mL (≈ 0.513 µM)
- fold increase in MIC (MRSA ATCC 33591 [3]; at 6th passage): ~16 fold
- fold increase in MIC (MRSA ATCC 33591 [3]; over 17 passages (final MIC / initial MIC)): 66.8 fold

Molecule: N=C(N)NCCC[C@H](NC(=O)CCCCCCCCCCCNC(=O)[C@H](CCCNC(=N)N)NC(=O)[C@@H](N)Cc1c[nH]c2ccccc12)C(=O)N[C@@H](Cc1c[nH]c2ccccc12)C(N)=O [S-6, Trp-Arg-(12-ADO)-Arg-Trp-CONH2] (HELM PEPTIDE1{W.R.[O=C(CCCCCCCCCCCN[*:1])[*:2]].R.W.[am]}$$$$V2.0)
- Minimum inhibitory concentration, MIC (S. aureus (ISP479R)): 11.3 µg/mL (≈ 12.6 µM)
- Minimum inhibitory concentration, MIC [4]: 11.3 µg/mL (≈ 12.6 µM)
- Minimum inhibitory concentration, MIC [5]: 11.3 µg/mL (≈ 12.6 µM)
- MIC [6]: > 45.4 µg/mL
- Minimum inhibitory concentration, MIC (MRSA (ATCC 43300)): 11.3 µg/mL (≈ 12.6 µM)
- Minimum inhibitory concentration, MIC (S. aureus (ATCC 29213)): 11.3 µg/mL (≈ 12.6 µM)
- Minimum inhibitory concentration, MIC (S. aureus (ISP479C)): 11.3 µg/mL (≈ 12.6 µM)
- Minimum inhibitory concentration, MIC (MRSA (ATCC 33591)): 11.3 µg/mL (≈ 12.6 µM)
- % viable cells relative to untreated control (MTT) ([7]; 10× MIC): no decrease in cell viability
- % viable cells relative to untreated control (MTT) ([7]; 20 × MIC): no decrease in cell viability
- Minimum inhibitory concentration, MIC [2]: 11.3 µg/mL (≈ 12.6 µM)
- Minimum inhibitory concentration, MIC (MRSA ATCC 33591 [8]; ATCC 33591, 3 h): 22.7 µg/mL (≈ 25.2 µM)
- Minimum inhibitory concentration, MIC (MRSA ATCC 33591 [8]; MRSA ATCC 33591, initial inoculum 10^7 CFU/mL, mid-log phase): 11.3 µg/mL (≈ 12.6 µM)

Molecule: N=C(N)NCCC[C@H](NC(=O)[C@@H](N)Cc1c[nH]c2ccccc12)C(=O)N[C@H](Cc1cccc2ccccc12)C(=O)N[C@@H](CCCNC(=N)N)C(=O)N[C@@H](Cc1c[nH]c2ccccc12)C(N)=O [S-3, Trp-Arg-(D-1-Nal)-Arg-Trp-CONH2] (HELM PEPTIDE1{W.R.[O=C([C@@H](Cc1cccc2ccccc12)N[*:1])[*:2]].R.W.[am]}$$$$V2.0)
- % hemolysis [1]: < 5%

Molecule: N=C(N)NCCC[C@H](NC(=O)CCCCCCCNC(=O)[C@H](CCCNC(=N)N)NC(=O)[C@@H](N)Cc1c[nH]c2ccccc12)C(=O)N[C@@H](Cc1c[nH]c2ccccc12)C(N)=O [S-5, Trp-Arg-(8-AOA)-Arg-Trp-CONH2] (HELM PEPTIDE1{W.R.[O=C(CCCCCCCN[*:1])[*:2]].R.W.[am]}$$$$V2.0)
- % hemolysis [1]: < 5%

Molecule: N=C(N)NCCC[C@H](NC(=O)[C@@H](Cc1cccc2ccccc12)NC(=O)CCCCCCCCCCCNC(=O)[C@@H](Cc1cccc2ccccc12)NC(=O)[C@@H](N)CCCNC(=N)N)C(N)=O [S-8, Arg-(D-1-Nal)-(12-ADO)-(D-1-Nal)-Arg-CONH2] (H-R[d1Nal][12Ado][d1Nal]R-NH2)
- Minimum inhibitory concentration, MIC (S. aureus (ISP479R)): 0.7 µg/mL (≈ 0.76 µM)
- Minimum inhibitory concentration, MIC [5]: 5.6 µg/mL (≈ 6.08 µM)
- MIC [6]: 5.6 µg/mL (≈ 6.08 µM)
- Minimum inhibitory concentration, MIC (MRSA (ATCC 43300)): 1.4 µg/mL (≈ 1.52 µM)
- % viable cells relative to untreated control (MTT) ([7]; 10× MIC): 84.8 ± 5.6%
- % viable cells relative to untreated control (MTT) ([7]; 20 × MIC): 81.1 ± 2.9%
- Minimum inhibitory concentration, MIC [2]: 1.4 µg/mL (≈ 1.52 µM)

Molecule: WRWRW-NH2 [S-1, Trp-Arg-Trp-Arg-Trp-CONH2]
- % hemolysis [1]: < 5%
